Data published in PubChem BioAssay AID328 (DTP/NCI, 2004).
“And” between values parts separate entries of the source, which are not always exact repeats. Equal values may be shown once. Toxic doses and inconclusive results are not listed. Non-standard residues stand in square brackets, D forms with d. Residues, ends and D or L forms follow the SMILES beside them. ξ: configuration not given here. ξPhe(4-N(CH2CH2Cl)2) = NC(Cc1ccc(N(CCCl)CCCl)cc1)C(=O)O

Tested on: BDF1 mice, P388 leukemia ip, median survival T/C
Test: NCI In Vivo Anticancer Drug Screen. Data for tumor model P388 Leukemia (intraperitoneal) in B6D2F1 (BDF1) mice
Details: endpoint: median survival time, higher = longer survival
Summary of the method: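 T/C = treated-group survival ÷ vehicle-control survival; tumour transplanted into mice before dosing.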

[1] = dose: 100.0 mg/kg/injection, schedule: Q04DX002 (ip), vehicle: saline with Tween-80
[2] = dose: 200.0 mg/kg/injection, schedule: Q04DX002 (ip), vehicle: saline with Tween-80
[3] = dose: 12.5 mg/kg/injection, schedule: Q01DX009 (ip), vehicle: saline with Tween-80
[4] = dose: 25.0 mg/kg/injection, schedule: Q01DX009 (ip), vehicle: saline with Tween-80
[5] = dose: 50.0 mg/kg/injection, schedule: Q01DX009 (ip), vehicle: saline with Tween-80
[6] = dose: 50.0 mg/kg/injection, schedule: Q01DX009 (ip), vehicle: saline
[7] = dose: 100.0 mg/kg/injection, schedule: Q01DX009 (ip), vehicle: saline
[8] = dose: 100.0 mg/kg/injection, schedule: Q01DX009 (ip), vehicle: saline with Tween-80
[9] = dose: 25.0 mg/kg/injection, schedule: Q01DX009 (ip), vehicle: saline
[10] = dose: 100.0 mg/kg/injection, schedule: Q04DX003 (ip), vehicle: saline with Tween-80
[11] = dose: 200.0 mg/kg/injection, schedule: Q04DX003 (ip), vehicle: saline with Tween-80
[12] = dose: 400.0 mg/kg/injection, schedule: Q04DX003 (ip), vehicle: saline with Tween-80
[13] = dose: 12.5 mg/kg/injection, schedule: Q01DX009 (ip), vehicle: saline
[14] = dose: 400.0 mg/kg/injection, schedule: Q04DX002 (ip), vehicle: saline with Tween-80
[15] = dose: 6.25 mg/kg/injection, schedule: Q01DX009 (ip), vehicle: Klucel (hydroxypropylcellulose) (HPC)

## Cc1ccc(N)c(CSc2ccccc2)c1
dose: 50.0 mg/kg/injection, schedule: Q04DX002 (ip), vehicle: saline with Tween-80
  T/C: 95 % of control
[1]
  T/C: 97 % of control
[2]
  T/C: 98 % of control

## CCCCn1cnc2c(=S)nc(N)[nH]c21
[3]
  T/C: 109 % of control
[4]
  T/C: 118 % of control
dose: 33.0 mg/kg/injection, schedule: Q04DX003 (ip), vehicle: saline with Tween-80
  T/C: 100 % of control and 118 % of control
[5]
  T/C: 118 % of control
dose: 50.0 mg/kg/injection, schedule: Q04DX003 (ip), vehicle: saline with Tween-80
  T/C: 108 % of control and 118 % of control
dose: 75.0 mg/kg/injection, schedule: Q04DX003 (ip), vehicle: saline with Tween-80
  T/C: 122 % of control

## CCN(CC)Cc1nccn1-c1ccc([N+](=O)[O-])cc1C(=O)c1ccccc1Cl
[6]
  T/C: 100 % of control
[7]
  T/C: 118 % of control

## CC(=O)NC1C(S[As](C)C)OC(COC(C)=O)C(OC(C)=O)C1OC(C)=O (stereo not given)
[8]
  T/C: 124 % of control

## O=C(O)C1(O)C(Cl)(Cl)C(Cl)=C(Cl)C1(Cl)Cl
[9]
  T/C: 118 % of control
[6]
  T/C: 122 % of control
[7]
  T/C: 118 % of control

## O=C1OCc2cc3ccccc3nc21
[10]
  T/C: 109 % of control
[11]
  T/C: 100 % of control
[12]
  T/C: 104 % of control

## O=C(NC1=NN(c2ccccc2)C(=O)C1)Nc1ccccc1
dose: 87.5 mg/kg/injection, schedule: Q01DX009 (ip), vehicle: saline with Tween-80
  T/C: 110 % of control
dose: 175.0 mg/kg/injection, schedule: Q01DX009 (ip), vehicle: saline with Tween-80
  T/C: 103 % of control

## COC(=O)c1cc(C)c(Br)c(N)c1
dose: 100.0 mg/kg/injection, schedule: Q01DX009 (ip), vehicle: Klucel (hydroxypropylcellulose) (HPC)
  T/C: 105 % of control
dose: 100.0 mg/kg/injection, schedule: Q04DX003 (ip), vehicle: Klucel (hydroxypropylcellulose) (HPC)
  T/C: 109 % of control
dose: 200.0 mg/kg/injection, schedule: Q01DX009 (ip), vehicle: Klucel (hydroxypropylcellulose) (HPC)
  T/C: 100 % of control
dose: 200.0 mg/kg/injection, schedule: Q04DX003 (ip), vehicle: Klucel (hydroxypropylcellulose) (HPC)
  T/C: 104 % of control
dose: 400.0 mg/kg/injection, schedule: Q01DX009 (ip), vehicle: Klucel (hydroxypropylcellulose) (HPC)
  T/C: 100 % of control
dose: 400.0 mg/kg/injection, schedule: Q04DX003 (ip), vehicle: Klucel (hydroxypropylcellulose) (HPC)
  T/C: 109 % of control

## Cc1ccc(S(=O)(=O)OC2CCCCCCCCCCC2=O)cc1 (stereo not given)
dose: 25.0 mg/kg/injection, schedule: Q04DX003 (ip), vehicle: other
  T/C: 99 % of control
dose: 50.0 mg/kg/injection, schedule: Q04DX003 (ip), vehicle: other
  T/C: 96 % of control
dose: 100.0 mg/kg/injection, schedule: Q04DX003 (ip), vehicle: other
  T/C: 95 % of control

## CCOC(=O)C(NC(C)=O)(C(=O)OCC)C(C)C(=O)c1ccc(OC)c(OC)c1OCc1ccccc1 (stereo not given)
[13]
  T/C: 101 % of control
[9]
  T/C: 111 % of control
[6]
  T/C: 92 % of control
dose: 200.0 mg/kg/injection, schedule: Q01DX009 (ip), vehicle: saline
  T/C: 101 % of control

## CC(C)(C)OC(=O)c1cccc(C(=O)OC(C)(C)C)c1
[1]
  T/C: 103 % of control
[2]
  T/C: 95 % of control
[14]
  T/C: 94 % of control

## O=CN(O)CC(=O)O.[Zn]
dose: 4.12 mg/kg/injection, schedule: Q01DX009 (ip), vehicle: saline
  T/C: 118 % of control and 122 % of control
dose: 6.25 mg/kg/injection, schedule: Q01DX009 (ip), vehicle: saline
  T/C: 118 % of control and 122 % of control
dose: 8.7 mg/kg/injection, schedule: Q04DX003 (ip), vehicle: saline
  T/C: 104 % of control
dose: 9.37 mg/kg/injection, schedule: Q01DX009 (ip), vehicle: saline
  T/C: 118 % of control
dose: 13.0 mg/kg/injection, schedule: Q04DX003 (ip), vehicle: saline
  T/C: 113 % of control
dose: 19.5 mg/kg/injection, schedule: Q04DX003 (ip), vehicle: saline
  T/C: 113 % of control
dose: 30.0 mg/kg/injection, schedule: Q04DX003 (ip), vehicle: saline
  T/C: 118 % of control

## COc1ccc(N=C/C=C/c2ccccc2)cc1
[10]
  T/C: 104 % of control
[11]
  T/C: 100 % of control
[12]
  T/C: 109 % of control

## CN=S(=O)(OCC1CCC1COS(=O)(=NC)c1ccc(C)cc1)c1ccc(C)cc1 (stereo not given)
[3]
  T/C: 109 % of control
[13]
  T/C: 93 % of control
[4]
  T/C: 100 % of control
[9]
  T/C: 93 % of control
[5]
  T/C: 90 % of control and 120 % of control
[6]
  T/C: 90 % of control
[8]
  T/C: 107 % of control and 114 % of control
[7]
  T/C: 93 % of control
dose: 200.0 mg/kg/injection, schedule: Q01DX009 (ip), vehicle: saline with Tween-80
  T/C: 116 % of control

## O=C(Nc1ccc(C2=NCCN2)cc1)c1ccc(C(=O)Nc2ccc(C3=NCCN3)cc2)c([N+](=O)[O-])c1
dose: 6.0 mg/kg/injection, schedule: Q01DX010 (ip), vehicle: saline
  T/C: 163 % of control
dose: 8.0 mg/kg/injection, schedule: Q01DX010 (ip), vehicle: saline
  T/C: 168 % of control
dose: 12.0 mg/kg/injection, schedule: Q01DX010 (ip), vehicle: saline
  T/C: 113 % of control

## O=C(C=C(C(F)(F)F)C(F)(F)F)c1ccc(F)cc1
[15]
  T/C: 101 % of control
dose: 6.25 mg/kg/injection, schedule: Q01DX009 (ip), vehicle: other
  T/C: 100 % of control
dose: 12.5 mg/kg/injection, schedule: Q01DX009 (ip), vehicle: Klucel (hydroxypropylcellulose) (HPC)
  T/C: 105 % of control
dose: 12.5 mg/kg/injection, schedule: Q01DX009 (ip), vehicle: other
  T/C: 109 % of control
dose: 16.5 mg/kg/injection, schedule: Q01DX009 (ip), vehicle: other
  T/C: 113 % of control
dose: 25.0 mg/kg/injection, schedule: Q01DX009 (ip), vehicle: Klucel (hydroxypropylcellulose) (HPC)
  T/C: 118 % of control
dose: 25.0 mg/kg/injection, schedule: Q01DX009 (ip), vehicle: other
  T/C: 118 % of control

## CCOC(=O)C(Cc1ccc(N(CCCl)CCCl)cc1)NC(=O)C(CCC(=O)O)NC(=O)C(CO)NC(=O)C(CCC(=O)O)NC(=O)C(N)CO (stereo not given) (H-SESE[ξPhe(4-N(CH2CH2Cl)2)]-OEt; configuration not given here)
dose: 5.0 mg/kg/injection, schedule: Q04DX003 (ip), vehicle: water
  T/C: 97 % of control
dose: 10.0 mg/kg/injection, schedule: Q04DX003 (ip), vehicle: water
  T/C: 99 % of control
dose: 20.0 mg/kg/injection, schedule: Q04DX003 (ip), vehicle: water
  T/C: 100 % of control
dose: 40.0 mg/kg/injection, schedule: Q04DX003 (ip), vehicle: water
  T/C: 100 % of control

## Nc1ncnc2oc(-c3ccccc3)c(-c3ccccc3)c12
dose: 6.25 mg/kg/injection, schedule: Q01DX009 (ip), vehicle: saline with Tween-80
  T/C: 100 % of control
[3]
  T/C: 100 % of control
[4]
  T/C: 97 % of control
[5]
  T/C: 92 % of control

## COC1=NCN=C2SC=C(N)N=C12
[13]
  T/C: 100 % of control
[9]
  T/C: 98 % of control
[6]
  T/C: 105 % of control

## CCC(CC)C(O)C(C)C(C)O (stereo not given)
[10]
  T/C: 100 % of control
[11]
  T/C: 100 % of control
[12]
  T/C: 100 % of control

## CC(=N\O)/C(C)=N/O.CC(=N\O)/C(C)=N/O.[Pd]
dose: 1.57 mg/kg/injection, schedule: Q01DX009 (ip), vehicle: Klucel (hydroxypropylcellulose) (HPC)
  T/C: 100 % of control
dose: 3.13 mg/kg/injection, schedule: Q01DX009 (ip), vehicle: Klucel (hydroxypropylcellulose) (HPC)
  T/C: 100 % of control
[15]
  T/C: 100 % of control

## O=S(=O)(c1ccccc1CO)c1ccccc1CO
[1]
  T/C: 98 % of control
[2]
  T/C: 95 % of control
[14]
  T/C: 100 % of control
